Where no end group is shown, it is not given here.

One data set deals with E. faecalis. Also on record: method as in 2 sources, ref 48 = [48]; PMID 28402481; doi:10.1093/abbs/gmx032; 48. Wang X. Ren S. Guo C. Zhang W. Zhang X. Zhang B. Li S. Ren J. Hu Y. Wang H. Identification and functional analyses of novel antioxidant peptides and antimicrobial peptides from skin secretions of ||| ref 49 = [49]; PMID 25066917; doi:10.1016/j.biochi.2014.07.013; 49. Guo C. Hu Y. Li J. Liu Y. Li S. Yan K. Wang X. Liu J. Wang H. Identification of multiple peptides with antioxidant and antimicrobial activities from skin and its secretions of Hylarana taipehensis. To be noted: cited from earlier work.

The test system of a further data set is Nocardia asteroides. Also on record: method as in 2 sources, ref 48 = [48]; PMID 28402481; doi:10.1093/abbs/gmx032; 48. Wang X. Ren S. Guo C. Zhang W. Zhang X. Zhang B. Li S. Ren J. Hu Y. Wang H. Identification and functional analyses of novel antioxidant peptides and antimicrobial peptides from skin secretions of ||| ref 49 = [49]; PMID 25066917; doi:10.1016/j.biochi.2014.07.013; 49. Guo C. Hu Y. Li J. Liu Y. Li S. Yan K. Wang X. Liu J. Wang H. Identification of multiple peptides with antioxidant and antimicrobial activities from skin and its secretions of Hylarana taipehensis. To be noted: cited from earlier work.

Data set [1] has as its system Candida species (C. albicans and C. glabrata). Also on record: method as in PMID 28402481. Conditions: cited from earlier work.
A further data set relates to S. aureus. Also on record: method as in 3 sources, one per row (each row's own in cited_ref): ref 46 = [46]; PMID 14499272; doi:10.1016/S0196-9781(03)00193-1; 46. Ali M.F. Knoop F.C. Vaudry H. Conlon J.M. Characterization of novel antimicrobial peptides from the skins of frogs of the Rana esculenta complex Peptides 2003 24 955 961 10.1016/S0196-9781(03)0019 ||| ref 48 = [48]; PMID 28402481; doi:10.1093/abbs/gmx032; 48. Wang X. Ren S. Guo C. Zhang W. Zhang X. Zhang B. Li S. Ren J. Hu Y. Wang H. Identification and functional analyses of novel antioxidant peptides and antimicrobial peptides from skin secretions of ||| ref 49 = [49]; PMID 25066917; doi:10.1016/j.biochi.2014.07.013; 49. Guo C. Hu Y. Li J. Liu Y. Li S. Yan K. Wang X. Liu J. Wang H. Identification of multiple peptides with antioxidant and antimicrobial activities from skin and its secretions of Hylarana taipehensis. Conditions: cited from earlier work.

The test system of data set [2] is Gram-negative bacteria (E. coli, P. aeruginosa, and K. pneumoniae). Also on record: method as in PMID 28402481. To be noted: cited from earlier work.
A further data set deals with E. coli. Also on record: method as in PMID 14499272. Conditions: cited from earlier work.
Another data set concerns L. mexicana amastigotes. To be noted: cited from earlier work. From the text:
Temporin-SHe represents an additional temporin with antiparasitic properties. This peptide was able to kill promastigote forms of the human parasite Leishmania, responsible for visceral (L. infantum), cutaneous (L. major) and muco-cutaneous (L. braziliensis) leishmaniasis. […] Until today, only six temporins (Ta, Tb, SHa, SHd, Tl and Tf) have been described as antiparasitic peptides and very few AMPs of other families are active against parasites (The Antimicrobial Peptide ...

For a further data set, the system named is human THP-1 monocytes. To be noted: taken from literature; cited from earlier work.
The next data set has as its system L. ivanovii (Li4pVS2). To be noted: liquid growth inhibition (CLSI), 10^6 CFU/mL in brain heart infusion (BHI) medium, 37 °C, 18–20 h, OD 630 nm; mean of three independent experiments in triplicate. How it is done:
Antibacterial activity of temporin-SHe was evaluated against Gram-positive bacteria including S. aureus strains (ATCC 25923, ST1065), antibiotic-resistant S. aureus strains (ATCC 43300, ATCC BAA-44), E. faecalis (ATCC 29212), B. megaterium, and L. ivanovii (Li4pVS2), and Gram-negative bacteria including E. coli strains (ATCC 25922, ATCC 35218, ML-35p), S. enterica (serotype Enteritidis), P. aeruginosa (ATCC 27853), A. baumannii (ATCC 19606) and K. pneumoniae (ATCC 13883). Antifungal activity was evaluated against C. albicans (ATCC 90028), C. parapsilosis (ATCC 22019) and S. cerevisiae. ATCC strains were purchased from American-Type Culture Collection (ATCC, Virginia, VA, USA). Antiparasitic activity was determined against promastigotes of several species of Leishmania responsible for visceral, cutaneous and mucocutaneous leishmaniases: L. infantum (strain MHOM/MA/67/ITMAP-263), L. major (strain MHOM/SU/73/5-ASKH), and L. braziliensis (strain MHOM/BR/75/M2904), respectively. Cytotoxicity was assessed against human red blood cells and THP-1 monocytes. Peripheral blood was obtained from healthy adult donors (Établissement Français du Sang, Paris, France). All donors signed informed consent allowing the use of their blood for research purposes.
Antimicrobial activity was assessed with a liquid growth inhibition assay performed according to a previously described protocol using the Clinical and Laboratory Standards Institute (CLSI) guidelines. Briefly, in 96-well microtitration plates, mid-log-phase bacteria diluted to 10^6 CFU/mL in Mueller–Hinton (MH) broth were added to different concentrations of synthetic temporin-SHe (1–200 µM, final concentrations) and incubated at 37 °C for 18–20 h, under shaking (150 rpm). For E. faecalis, L. ivanovii and yeasts/fungi, 10^6 CFU/mL suspensions were prepared in LB broth, brain heart infusion (BHI) medium and Yeast Peptone Dextrose (YPD) medium, respectively, and incubation was performed at 30 °C for yeasts/fungi. […] MIC values represent the average of three independent experiments, each performed in triplicate with negative (no peptide) and positive (formaldehyde 0.7%) controls.

On to “FLPFLAGLFGKIF-NH2 [Temporin-HB2, temporin isolated from the Hubei Frog Pelophylax hubeiensis]”, for which the MIC is listed as 19 µM with E. faecalis, 75 µM in the data set on Nocardia asteroides and 150 µM with S. aureus. Besides, the “activity against Candida species” value in data set [1] is recorded as “No activity”. The “activity against Gram-negative bacteria” value in data set [2] is “No activity”.

For the substance “FLPVIAGLLSKLF-NH2 [Temporin-1Ec, temporin isolated from Pelophylax lessonae/ridibundus]”, the MIC is listed as over 100 µM in the data set with E. coli and 8 µM with S. aureus.

Regarding “FLSGIVGMLGKLF-NH2 [Temporin-SHa, 13-residue temporin-SH from Pelophylax saharicus]”, the “less efficiency against L. mexicana amastigotes (compared with promastigotes)” value in the data set with L. mexicana amastigotes is on record as “approximately 10 fold”.

With “FLPLLFGALSTLLPKIF-NH2 [Temporin-TP3, temporin isolated from skin secretions of Hylarana taipehensis]”, the minimal inhibitory concentration (MIC) with E. faecalis was 50 µM; with Nocardia asteroides, 12.5 µM; in the data set with S. aureus, 25 µM.

As to “FLPAALAGIGGILGKLF-NH2 [Temporin-SHd, reference compound]”, the “LC50 (lethal concentration 50)” value in the data set with human THP-1 monocytes was 66 µM. The same substance showed an MIC with L. ivanovii (Li4pVS2) of 10 µM.

The MIC is the smallest concentration in the dilution series that meets the test's criterion for growth inhibition.

Values taken from PMC7555312, “Functional Characterization of Temporin-SHe, a New Broad-Spectrum Antibacterial and Leishmanicidal Temporin-SH Paralog from the Sahara Frog (Pelophylax saharicus)” (International Journal of Molecular Sciences, 2020).
